Assay results published in ChEMBL document CHEMBL6078687 (J Med Chem, 2024).

Legend:
[1] = Half life in Sprague-Dawley rat at 20 mg/kg, po measured for 15 to 1440 mins by LC-MS/MS analysis; format: ADME, organism-based; conditions: in vivo, time 15-1440 min
[2] = MRT (0 to t) in Sprague-Dawley rat at 20 mg/kg, po measured for 15 to 1440 mins by LC-MS/MS analysis; format: ADME, organism-based; conditions: in vivo, time 15-1440 min
[3] = Inhibition of neuraminidase in Influenza A virus A/Goose/Guangdong/SH7/2013 H5N1 using MUNANA as substrate incubated for 40 mins by […] based assay
[4] = Clearance in Sprague-Dawley rat at 2 mg/kg, iv measured for 15 to 1440 mins by LC-MS/MS analysis; format: ADME, organism-based; conditions: in vivo, time 15-1440 min
[5] = Cytotoxicity against CEF cells incubated for 48 hrs by CCK8 assay; format: toxicity, cell-based, Gallus gallus; conditions: chicken
[6] = MRT (0 to infinity) in Sprague-Dawley rat at 2 mg/kg, iv measured for 15 to 1440 mins by LC-MS/MS analysis; format: ADME, organism-based; conditions: in vivo, time 15-1440 min
Influenza A virus [7] = assay: microbe, parasite or virus in culture; conditions: A/Goose/Guangdong/SH7/2013 H5N1, CEF, 48 h
in vivo [8] = conditions: Sprague-Dawley, rat, po, 20 mg/kg
in vitro [9] = conditions: human, liver microsomes
[10] = Metabolic stability in human plasma assessed as compound remaining at 2 uM incubated upto 120 mins by LC-MS/MS analysis; format: ADME, cell-free; conditions: read-out: Stability
[11] = Tmax in Sprague-Dawley rat at 2 mg/kg, iv measured for 15 to 1440 mins by LC-MS/MS analysis; format: ADME, organism-based; conditions: in vivo, time 15-1440 min
Influenza A virus [12] = assay: microbe, parasite or virus in culture; conditions: A/PR/8/34 H1N1, MDCK, 48 h
[13] = Inhibition of neuraminidase in Influenza A virus A/Babol/36/2005 H3N2 using MUNANA as substrate incubated for 40 mins by […] based assay
[14] = Acute toxicity in Kunming mouse assessed as increase in body weight at 1000 mg/kg, IG measured for 1 week; format: organism-based; conditions: in vivo, po, 168 h, time 1 weeks
[15] = Acute toxicity in Kunming mouse assessed as signs of disheveled fur at 1000 mg/kg, IG measured for 1 week; format: organism-based; conditions: in vivo, po, 168 h, time 1 weeks
[16] = Acute toxicity in Kunming mouse assessed as signs of appetite loss at 1000 mg/kg, IG measured for 1 week; format: organism-based; conditions: in vivo, po, 168 h, time 1 weeks
[17] = Acute toxicity in Kunming mouse assessed as drug tolerance at 1000 mg/kg, IG measured for 1 week; format: organism-based; conditions: in vivo, po, 168 h, time 1 weeks
[18] = Apparent volume of distribution in Sprague-Dawley rat at 2 mg/kg, iv measured for 15 to 1440 mins by LC-MS/MS analysis; format: ADME, organism-based; conditions: in vivo, time 15-1440 min, read-out: Vz
[19] = Metabolic stability in human liver microsomes assessed as compound remaining incubated for 60 mins by LC-MS/MS analysis; format: ADME, Microsome; conditions: 1 h
[20] = Tmax in Sprague-Dawley rat at 20 mg/kg, po measured for 15 to 1440 mins by LC-MS/MS analysis; format: ADME, organism-based; conditions: in vivo, time 15-1440 min
[21] = Cmax in Sprague-Dawley rat at 20 mg/kg, po measured for 15 to 1440 mins by LC-MS/MS analysis; format: ADME, organism-based; conditions: in vivo, time 15-1440 min
[22] = MRT (0 to infinity) in Sprague-Dawley rat at 20 mg/kg, po measured for 15 to 1440 mins by LC-MS/MS analysis; format: ADME, organism-based; conditions: in vivo, time 15-1440 min
[23] = Cytotoxicity against MDCK cells incubated for 48 hrs by MTT assay; format: toxicity, cell-based, Canis lupus familiaris; conditions: dog
[24] = Acute toxicity in Kunming mouse assessed as signs of convulsion movements at 1000 mg/kg, IG measured for 1 week; format: organism-based; conditions: in vivo, po, 168 h, time 1 weeks
in vitro [25] = conditions: human, liver microsomes; remark: listed apart in the source
Influenza A virus [26] = assay: microbe, parasite or virus in culture; conditions: A/Goose/Jiangsu/1306/2014 H5N8, CEF, 48 h
[27] = Half life in Sprague-Dawley rat at 2 mg/kg, iv measured for 15 to 1440 mins by LC-MS/MS analysis; format: ADME, organism-based; conditions: in vivo, time 15-1440 min
in vivo [28] = conditions: Sprague-Dawley, rat, po, 20 mg/kg; remark: listed apart in the source
[29] = Metabolic stability in human plasma assessed as half life at 2 uM incubated upto 120 mins by LC-MS/MS analysis; format: ADME, cell-free
[30] = Cmax in Sprague-Dawley rat at 2 mg/kg, iv measured for 15 to 1440 mins by LC-MS/MS analysis; format: ADME, organism-based; conditions: in vivo, time 15-1440 min
Influenza A virus [31] = assay: Antiviral activity against Influenza A virus A/WSN/67/05 H3N2 infected in MDCK cells assessed as inhibition of plaque formation measured after 2 days; conditions: A/WSN/67/05 H3N2, MDCK, 48 h
in vivo [32] = conditions: Sprague-Dawley, rat, iv, 2 mg/kg
in vivo [33] = conditions: Sprague-Dawley, rat, iv, 2 mg/kg; remark: listed apart in the source
[34] = Acute toxicity in Kunming mouse assessed as animal mortality at 1000 mg/kg, IG measured for 1 week; format: organism-based; conditions: in vivo, po, 168 h, time 1 weeks
[35] = MRT (0 to t) in Sprague-Dawley rat at 2 mg/kg, iv measured for 15 to 1440 mins by LC-MS/MS analysis; format: ADME, organism-based; conditions: in vivo, time 15-1440 min
[36] = Acute toxicity in Kunming mouse assessed as signs of sedation at 1000 mg/kg, IG measured for 1 week; format: organism-based; conditions: in vivo, po, 168 h, time 1 weeks
[37] = Oral bioavailability in Sprague-Dawley rat at 20 mg/kg measured for 15 to 1440 mins by LC-MS/MS analysis; format: ADME, organism-based; conditions: in vivo, time 15-1440 min

Row | SMILES | half-life [1] | MRT last [2] | IC50 [3] | clearance [4] | CC50 at 48 h [5] | MRT inf [6] | EC50 (Influenza A virus [7]) | AUC(0-inf) (in vivo [8]) | microsomal CLint at 2 h (in vitro [9]) | remaining at 2 h, 2 µM [10] | Tmax [11] | EC50 (Influenza A virus [12]) | IC50 [13] | Activity [14] | Activity [15] | Activity [16] | Activity [17] | Vd [18] | Stability [19] | Tmax [20] | further results
1 | CCC(CC)O[C@@H]1C=C(C(=O)O)C[C@H](NCc2ccc(OCc3cccc(B(O)O)c3)cc2Cl)[C@H]1NC(C)=O | 41.4 min | 46.8 min | 17 nM | 45.5 mL/min/kg | > 200000 nM | 10.2 min | 5410 nM | 48.8 ng·h/mL | 13.6 µL/min/mg | 104% | 4.98 min | 8 nM | 260 nM | Toxic | Non-toxic | Non-toxic | Non-toxic | 1.12 L/kg | 98.6% | 15 min | Cmax [21]: 57.5 ng/mL; MRT inf [22]: 54.6 min; EC50 at 48 h [23]: > 250000 nM; Activity [24]: Non-toxic; CLint scaled at 2 h (in vitro [25]): 12.2 mL/min/kg; EC50 (Influenza A virus [26]): 3260 nM; half-life [27]: 16.8 min; AUC(0-t) (in vivo [28]): 47 ng·h/mL; half-life at 2 µM [29]: > 289 min; Cmax [30]: 2520 ng/mL; EC50 (Influenza A virus [31]): > 100000 nM; AUC(0-inf) (in vivo [32]): 749 ng·h/mL; AUC(0-t) (in vivo [33]): 747 ng·h/mL; Activity [34]: Non-toxic; MRT last [35]: 9.6 min; Activity [36]: Non-toxic; bioavailability [37]: 0.65%
2 | CCC(CC)O[C@@H]1C=C(C(=O)O)C[C@H](NCc2ccc(OCc3cccc(B(O)O)c3)cc2C)[C@H]1NC(C)=O | 78.6 min | 48.6 min | 90 nM | 24.8 mL/min/kg | > 200000 nM | 7.8 min | 1290 nM | 20.3 ng·h/mL | 11.2 µL/min/mg | 99.3% | 4.98 min | 8 nM | 470 nM | Toxic | Non-toxic | Non-toxic | Non-toxic | 0.511 L/kg | 112.2% | 1320 min | Cmax [21]: 10.4 ng/mL; MRT inf [22]: 117 min; EC50 at 48 h [23]: > 250000 nM; Activity [24]: Non-toxic; CLint scaled at 2 h (in vitro [25]): 10.1 mL/min/kg; EC50 (Influenza A virus [26]): 1270 nM; half-life [27]: 15 min; AUC(0-t) (in vivo [28]): 12.7 ng·h/mL; half-life at 2 µM [29]: > 289 min; Cmax [30]: 4850 ng/mL; EC50 (Influenza A virus [31]): 67500 nM; AUC(0-inf) (in vivo [32]): 1380 ng·h/mL; AUC(0-t) (in vivo [33]): 1370 ng·h/mL; Activity [34]: Non-toxic; MRT last [35]: 7.8 min; Activity [36]: Non-toxic; bioavailability [37]: 0.15%
